Like-named read-outs stand apart in the source and are kept apart here.
What was measured:
[1] = tested on: rat carrageenan-induced foot pad edema; assay: Rat carrageenan-induced foot pad edema assay; type: in vivo, rats; conditions: 10 mg/kg oral
Protocol: Male Sprgue-Dawley rats (190–220 g) were fasted with free access to water at least 16 h prior to experiments. The rats were dosed orally with a 1 ml suspension of test compound in vehicle (0.5% methyl cellulose and 0.025% Tween-20) or with vehicle alone. One hour later a subplantar injection of 0.1 ml of 1% solution of caarageenan in 0.9% strile saline was administered to the right hind foot pad. Paw volume was measured with a displacement plethysmometer 2, 3, and 4 h after caarageenan injection.

Cyclooxygenase-2 = target: T1, Cyclooxygenase-2 (Mus musculus, UniProt Q05769); assay: COX-2 assay: LPS-stimulated PGE2 production in mouse peritoneal macrophages (RIA); type: cell-based, mice; conditions: for IC50: mouse peritoneal macrophages, LPS 1 mg/L 9 h, PGE2 by RIA; for COX-1/COX-2: ratio of IC50 COX-1 to IC50 COX-2
T1 construct: endogenous in cells; host or cells: thioglycollate-elicited peritoneal macrophages of male C57BL-6J mice
T1 sequence (Q05769 18-604): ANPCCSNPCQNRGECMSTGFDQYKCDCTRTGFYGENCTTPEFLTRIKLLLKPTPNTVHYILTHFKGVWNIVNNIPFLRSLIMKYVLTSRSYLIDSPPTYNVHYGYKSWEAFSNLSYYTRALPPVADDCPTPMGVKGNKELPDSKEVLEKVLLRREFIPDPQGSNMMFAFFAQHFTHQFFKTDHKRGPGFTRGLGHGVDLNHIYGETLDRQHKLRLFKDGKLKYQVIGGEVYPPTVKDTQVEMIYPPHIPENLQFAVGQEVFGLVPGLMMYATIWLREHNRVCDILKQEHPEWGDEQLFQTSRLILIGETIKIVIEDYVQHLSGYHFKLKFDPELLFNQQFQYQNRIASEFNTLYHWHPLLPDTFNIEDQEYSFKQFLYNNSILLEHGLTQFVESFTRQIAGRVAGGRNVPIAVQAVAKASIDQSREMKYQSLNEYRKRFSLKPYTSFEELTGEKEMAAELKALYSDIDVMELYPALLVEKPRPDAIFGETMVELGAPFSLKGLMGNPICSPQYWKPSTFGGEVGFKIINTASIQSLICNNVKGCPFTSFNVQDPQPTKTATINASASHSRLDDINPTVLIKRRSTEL
Protocol: Cell culture: Adherent macrophages were harvested from the peritoneal cells of male mice (C57BL-6J, Level 2, from Experiment Animal Center, Academy of Military Medical Science) 3 d after the injection (ip) of brewer thioglycollate medium (5 mL/100 g body weight). […] After settlement for 2˜3 h, non-adherent cells were washed by D-Hanks' balanced salt solution. […] Cell viability was examined by trypan blue dye exclusion. All incubation procedures were performed with 5% CO2 in humidified air at 37° C.
COX-2 assay: Macrophages were incubated with test compound at different concentrations or solvent (Me2SO) for 1 h and were stimulated with LPS 1 mg/L for 9 h. The amount of PGE2 in supernatants was measured by RIA. The inhibitory ratio was calculated using the same formula as in COX-1 assay section. Cs, Ct, Cc refer to PGE2 concentration in supernatants of LPS, test compound, and control groups, respectively.
(§1) [formula] Cs, Ct, Cc refer to 6-keto-PGF1[…] concentration in supernatants of calcimycin, test compound, and control groups, respectively.
(§2) Statistical analysis: Data were expressed as the mean±SD of more than three independent experiments. Dose-inhibitory effect curves were fit through “uphill dose response curves, variable slope” using Prism, GraphPad version3.00: […]

Cyclooxygenase-1 = target: T2, Cyclooxygenase-1 (Mus musculus, UniProt P22437); assay: COX-1 assay: calcimycin-stimulated 6-keto-PGF1 production in mouse peritoneal macrophages (RIA); type: cell-based, mice; conditions: calcimycin 1 μmol/L 1 h, 6-keto-PGF1 by RIA
T2 construct: endogenous in cells; host or cells: thioglycollate-elicited peritoneal macrophages of male C57BL-6J mice
T2 sequence (P22437 27-602): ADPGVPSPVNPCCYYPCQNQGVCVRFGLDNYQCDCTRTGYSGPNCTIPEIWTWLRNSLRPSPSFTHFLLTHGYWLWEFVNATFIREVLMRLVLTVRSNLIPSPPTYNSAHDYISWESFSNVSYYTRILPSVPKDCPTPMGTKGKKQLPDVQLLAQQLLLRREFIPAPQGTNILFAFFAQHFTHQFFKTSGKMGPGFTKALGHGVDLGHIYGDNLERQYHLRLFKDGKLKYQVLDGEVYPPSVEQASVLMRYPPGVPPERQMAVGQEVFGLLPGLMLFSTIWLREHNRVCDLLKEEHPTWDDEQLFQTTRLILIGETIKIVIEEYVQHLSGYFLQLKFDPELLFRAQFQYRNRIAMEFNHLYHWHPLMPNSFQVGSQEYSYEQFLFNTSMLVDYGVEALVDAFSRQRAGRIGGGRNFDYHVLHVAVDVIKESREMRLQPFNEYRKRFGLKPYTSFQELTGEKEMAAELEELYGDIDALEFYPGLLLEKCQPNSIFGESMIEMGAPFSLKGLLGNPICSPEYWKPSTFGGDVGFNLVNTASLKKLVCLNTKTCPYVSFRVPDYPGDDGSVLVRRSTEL
Protocol: Cell culture: Adherent macrophages were harvested from the peritoneal cells of male mice (C57BL-6J, Level 2, from Experiment Animal Center, Academy of Military Medical Science) 3 d after the injection (ip) of brewer thioglycollate medium (5 mL/100 g body weight). Shortly, peritoneal cells obtained from 3˜4 mice were mixed and seeded in 48 well cell culture cluster (Costar) at a cell density of 1×10^9 cell/L in RPMI-1640 supplemented with 5% (v/v) newborn calf serum, 100 ku/L penicillin and […] streptomycin. After settlement for 2˜3 h, non-adherent cells were washed by D-Hanks' balanced salt solution. Then macrophages were cultured in RPMI-1640 without serum. Almost all of adherent cells were macrophages as assessed by Giemsa staining. Cell viability was examined by trypan blue dye exclusion. All incubation procedures were performed with 5% CO2 in humidified air at 37° C.
COX-1: assay Macrophages were incubated with test compound at different concentrations or solvent (Me2SO) for 1 h and were stimulated with calcimycin 1 μmol·L^−1 for 1 h. The amount of 6-keto-PGF1[…] (a stable metabolite of PGI2) in supernatants was measured by RIA according to manufacturer's guide. The inhibitory ratio was calculated as
as §1, §2

[2] = 3 h after carrageenan, read-out: inhibitory percentage of edema, 3 hr
[3] = 4 h after carrageenan, read-out: inhibitory percentage of edema, 4 hr

| Compound | inhibition at 10 mg/kg [1, 2] [%] | inhibition at 10 mg/kg [1, 3] [%] | IC50 (Cyclooxygenase-2) [nM] | IC50 (Cyclooxygenase-1) [nM] | COX-1/COX-2 (Cyclooxygenase-2) |
| --- | --- | --- | --- | --- | --- |
| CCCN1CC(c2ccc(C)cc2)=C(c2ccc(S(C)(=O)=O)cc2)C1=O [Example 104, N-Propyl-3-(4-methylsulfonylphenyl)-4-(4-methylphenyl)-2,5-dihydropyrrole-2-one] | 24.5 | 19.3 | – | – | – |
| Cc1ccc(C2=C(c3ccc(S(C)(=O)=O)cc3)C(=O)N(C)C2)cc1 [Example 105, N-Methyl-3-(4-methylsulfonylphenyl)-4-(4-methylphenyl)-2,5-dihydropyrrole-2-one] | 39.2 | 48.2 | 782 | > 10000 | – |
| CS(=O)(=O)c1ccc(C2=C(c3cccc(Cl)c3)CN(C3CC3)C2=O)cc1 [Example 108, N-Cyclopropyl-3-(4-methylsulfonylphenyl)-4-(3-chlorophenyl)-2,5-dihydropyrrole-2-one] | 36.4 | 43.5 | 783 | > 10000 | – |
| CCCN1CC(c2cccc(Cl)c2)=C(c2ccc(S(C)(=O)=O)cc2)C1=O [Example 110, N-Propyl-3-(4-methylsulfonylphenyl)-4-(3-chlorophenyl)-2,5-dihydropyrrole-2-one] | 25.8 | 36.7 | 783 | – | – |
| CCCN1CC(c2ccc(S(C)(=O)=O)cc2)=C(c2ccccc2)C1=O [Example 115, N-Propyl-3-phenyl-4-(4-methylsulfonylphenyl)-2,5-dihydropyrrole-2-one] | 22.8 | 27.2 | 19.5 | 149 | 7.6 |
| CN1CC(c2ccc(S(C)(=O)=O)cc2)=C(c2ccc(Cl)cc2)C1=O [Example 117, N-Methyl-3-(4-chlorophenyl)-4-(4-methylsulfonylphenyl)-2,5-dihydropyrrole-2-one] | 48.2 | 59.3 | 24.2 | 159 | 6.6 |
| CN1CC(c2ccc(S(C)(=O)=O)cc2)=C(c2ccc(Br)cc2)C1=O [Example 119, N-Methyl-3-(4-bromophenyl)-4-(4-methylsulfonylphenyl)-2,5-dihydropyrrole-2-one] | 48 | 49.8 | 11.8 | 57.2 | 4.9 |
| CN1CC(c2ccc(S(C)(=O)=O)cc2)=C(c2ccc(F)cc2)C1=O [Example 120, N-Methyl-3-(4-fluorophenyl)-4-(4-methylsulfonylphenyl)-2,5-dihydropyrrole-2-one] | 39.2 | 26.2 | 13.8 | 200 | 14.5 |
| CCCN1CC(c2ccc(S(C)(=O)=O)cc2)=C(c2ccc(C)cc2)C1=O [Example 122, N-Propyl-3-(4-methylphenyl)-4-(4-methylsulfonylphenyl)-2,5-dihydropyrrole-2-one] | 57.2 | 59.3 | 15 | 91.3 | – |
| CCCN1CC(c2ccc(S(C)(=O)=O)cc2)=C(c2ccc(F)cc2)C1=O [Example 123, N-Propyl-3-(4-fluorophenyl)-4-(4-methylsulfonylphenyl)-2,5-dihydropyrrole-2-one] | 49.6 | 50.3 | 28.6 | 502 | – |
| CCCN1CC(c2ccc(S(C)(=O)=O)cc2)=C(c2ccc(Cl)cc2)C1=O [Example 124, N-Propyl-3-(4-chlorophenyl)-4-(4-methylsulfonylphenyl)-2,5-dihydropyrrole-2-one] | 39.4 | 32.7 | 24.5 | 8.02 | – |
| Cc1ccc(C2=C(c3ccc(S(C)(=O)=O)cc3)CN(C3CC3)C2=O)cc1 [Example 125, N-Cyclopropyl-3-(4-methylphenyl)-4-(4-methylsulfonylphenyl)-2,5-dihydropyrrole-2-one] | 34.1 | 31.1 | 94.8 | 236 | 2.5 |
| Cc1cccc(C2=C(c3ccc(S(N)(=O)=O)cc3)CN(C3CC3)C2=O)c1 [Example 141, N-Cylcopropyl-3-(3-methylphenyl)-4-(4-aminosulfonylphenyl)-2,5-dihydropyrrole-2-one] | – | – | 18.7 | > 10000 | – |
| CS(=O)(=O)c1ccc(C2=C(c3ccccc3)C(=O)OC2)cc1 [Rofecoxib, reference compound] | 45.9 | 50.2 | 9.57 | > 10000 | – |
